Results reported in US11691981B2, “Heterocyclic compounds, preparation methods therefor, and methods of uses thereof” (INVENTISBIO CO., LTD., priority 2019, dated 2023).

Assays:
[1] = molecular target: TGFβR1 (Homo sapiens (Human), UniProt P36897); experiment: TGFβR1 kinase inhibition assay (ADP-Glo Kinase Assay); type: biochemical; settings: 40 nM TGFβR1 in 2x enzyme mix, 5.4 μM ATP in 2x substrate mix, 120 min RT
Experimental: TGFβR1 kinase assay was performed according to the instruction manual of the ADP-Glo™ Kinase Assay kit provided by Promega. Prepare 1× Kinase buffer (50 mM Tris pH7.5, 0.1% BSA, 10 mM MgCl2, 1 mM DTT). Before activation reaction was started, Compounds were dissolved in DMSO and make 100× solution with 3-fold serial dilution for a total of 10 concentrations. Transfer 50 nL compounds to 384-well plate according to plate map using the automated liquid handler. […] Add 5 μL ADP-Glo Reagent to terminate the kinase reaction and deplete the remaining ATP, incubate at RT for 60 minutes. Add 10 μL Kinase Detection Reagent to convert ADP to ATP and allow the newly synthesized ATP to be measured using a luciferin reaction, incubate at RT for 30 minutes. Collect luminescence data with Envision.

[2] = molecular target: TGFβR2 (Homo sapiens (Human), UniProt P37173); experiment: TGFβR2 kinase inhibition assay (ADP-Glo); type: biochemical; settings: 10 uM ATP, 120 min room temperature
Experimental: The TGFβR2 enzyme reaction was carried out as follows: 50 nL of compound in DMSO (or DMSO controls) were stamped into 384 white, low-volume plates. 2.5 μL of 2× enzyme solution (final enzyme concentration was 3 ng/uL in 40 mMTris, 7.5; 20 mM MgCl2; 0.1 mg/mL BSA; 1 mM DTT) was dispensed into assay plate. The plate was then sealed and spun at 1000 rpm for 30 s and incubated at room temperature for 10 min. Followed by addition of 2.5 μL of 2× substrate solution that contains both ATP (to make a final concentration of 10 uM) and TGFβR2 substrate (final concentration of 0.2 ug/uL). The plate was then sealed and spun at 1000 rpm for 30 s and the reaction was then incubated at room temperature for 120 min. After that 5 μL ADP-Glo™ Reagent was added into the assay wells to stop the reaction and deplete unconsumed ATP for 40 min at room temperature; then, 10 μL of Detection Reagent was added into the assay wells, followed by 40 min incubation to develop luminescence. The luminescence signal was then collected on Envision 2104 plate reader.

Chain of TGFβR1 (P36897 34-503): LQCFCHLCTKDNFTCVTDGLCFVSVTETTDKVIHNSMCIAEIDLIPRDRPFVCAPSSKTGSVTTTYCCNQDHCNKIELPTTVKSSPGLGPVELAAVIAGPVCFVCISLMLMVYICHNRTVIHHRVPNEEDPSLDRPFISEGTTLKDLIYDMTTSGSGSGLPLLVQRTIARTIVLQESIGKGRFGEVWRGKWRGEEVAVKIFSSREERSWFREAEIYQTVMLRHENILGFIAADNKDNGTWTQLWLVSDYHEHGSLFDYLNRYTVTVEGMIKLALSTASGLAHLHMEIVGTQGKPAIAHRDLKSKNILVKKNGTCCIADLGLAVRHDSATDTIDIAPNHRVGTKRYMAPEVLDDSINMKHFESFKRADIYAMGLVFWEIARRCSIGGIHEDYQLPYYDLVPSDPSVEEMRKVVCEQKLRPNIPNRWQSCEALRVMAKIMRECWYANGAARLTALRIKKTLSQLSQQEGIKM
Chain of TGFβR2 (P37173 23-567): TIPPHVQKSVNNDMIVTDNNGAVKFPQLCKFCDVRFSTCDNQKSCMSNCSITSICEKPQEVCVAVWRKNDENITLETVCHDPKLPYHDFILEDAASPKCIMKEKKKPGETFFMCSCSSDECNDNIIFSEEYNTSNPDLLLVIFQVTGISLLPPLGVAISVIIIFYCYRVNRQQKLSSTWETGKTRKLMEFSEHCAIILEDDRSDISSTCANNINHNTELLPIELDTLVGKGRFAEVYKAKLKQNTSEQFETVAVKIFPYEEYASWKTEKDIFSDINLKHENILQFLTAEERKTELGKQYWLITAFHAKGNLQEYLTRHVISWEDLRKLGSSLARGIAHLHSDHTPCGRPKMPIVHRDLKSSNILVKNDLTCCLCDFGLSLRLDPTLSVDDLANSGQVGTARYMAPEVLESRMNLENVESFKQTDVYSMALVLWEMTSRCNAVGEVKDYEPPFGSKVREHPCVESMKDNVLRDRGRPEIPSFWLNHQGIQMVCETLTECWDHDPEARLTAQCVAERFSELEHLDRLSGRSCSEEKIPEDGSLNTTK

Row | SMILES | IC50 [1] | IC50 [2]
1 | N#Cc1cccc(Nc2cc(Oc3cc(C(F)(F)F)nn3C3CCOCC3)ccn2)c1 [Compound 9] | 163 nM | > 100 µM
2 | N#Cc1ccc(Nc2cc(Oc3cc(C(F)(F)F)nn3C3CCOCC3)ccn2)cc1 [Compound 10] | 131 nM | > 100 µM
3 | CC1(C)OC(=N)c2ccc(Nc3cc(Oc4cn(C5CC5)nc4C4CCOCC4)ccn3)cc21 [Compound 78] | 22 nM | > 100 µM
4 | CC(C)(O)c1ccc(Nc2cc(Oc3cc(C(F)(F)F)nn3-c3ccccc3F)ccn2)cn1 [Compound 52] | 21 nM | 16 µM
5 | CC1(C)OC(=O)c2ccc(Nc3cc(Oc4cn(C5CC5)nc4C4CCOCC4)ccn3)cc21 [Compound 79] | 29 nM | 73 µM
6 | NS(=O)(=O)c1ccc(Nc2cc(Oc3cc(C4CC4)nn3C3CCOCC3)ccn2)cc1 [Compound 14] | 37 nM | > 100 µM
7 | Cc1ccc(Oc2ccnc(Nc3ccc(S(N)(=O)=O)cc3)c2)c(C2CCOCC2)n1 [Compound 59] | 32 nM | 10 µM
8 | CC(C)(O)c1ccc(Nc2cc(Oc3cc(C(F)(F)F)nn3-c3c(F)cccc3F)ccn2)cn1 [Compound 53] | 18 nM | 56 µM

The next lines start with the values.

Row | IC50 [1] | IC50 [2] | SMILES
9 | 13 nM | 21 µM | CC(C)(O)c1cc(Nc2cc(Oc3cc(C(F)(F)F)nn3-c3c(F)cccc3F)ccn2)ccn1 [Compound 45]
10 | 557 nM | > 100 µM | CC(C)(O)c1cc(Nc2cc(Oc3cc(C(F)(F)F)nn3C3CC3)ccn2)ccn1 [Compound 7]
11 | 19 nM | 89 µM | CC(C)(O)c1cc(Nc2cc(Oc3cc(C4CC4)nn3[C@@H]3C[C@H]4CC[C@@H](C3)O4)ccn2)ccn1 [Compound 29]
12 | 39 nM | 11 µM | Cc1ccc(Oc2ccnc(Nc3ccnc(C(C)(C)O)c3)c2)c(C2CC2)n1 [Compound 58]
13 | 35 nM | 15 µM | Cc1ccc(Oc2ccnc(Nc3ccnc(C(C)(C)O)c3)c2)c(C2CCOCC2)n1 [Compound 55]
14 | 37 nM | > 100 µM | CC(C)(O)c1cc(Nc2cc(Oc3cc(C4CC4)nn3CC(F)(F)F)ccn2)ccn1 [Compound 21]
15 | 12 nM | 1 µM | CC(C)(O)c1cc(Nc2cc(Oc3cc(C(F)(F)F)nn3-c3ccccc3)ccn2)ccn1 [Compound 17]
16 | 34 nM | 34 µM | CC(C)(O)c1cc(Nc2cc(Oc3cc(C(F)(F)F)nn3C(C)(C)C)ccn2)ccn1 [Compound 16]
17 | 42 nM | 17 µM | Cc1ccc(-n2nc(C(F)(F)F)cc2Oc2ccnc(Nc3ccnc(C(C)(C)O)c3)c2)cc1 [Compound 34]
